According to PMC12677607, “Identification of a Pair of Linear or Cyclic Naturally Inspired Bifunctional Lipopeptide Antibiotics That Overcome Antimicrobial Resistance” (Advanced Science, 2025):

Legend:
Gram negative bacteria = tested on: Gram negative bacteria; parameters: method as in 2 sources, one per row (each row's own in cited_ref): ref 27 (a number printed in a supplementary file, which may have a reference list of its own: not looked up in the article's list) ||| ref 26 = [26]; PMID 24281661; doi:10.1038/ja.2013.121; 26 S. Kozuma , Y. Hirota‐Takahata , D. Fukuda , N. Kuraya , M. Nakajima , O , A , J. Antibiot. (Tokyo) 2014 , 67 , 237 . 24281661 10.1038/ja.2013.121; settings: cited from earlier work; for MIC, anti-Gram negative activity: Figure S20, known paired peptides
Text: All 17 synAQUs were initially assayed for antimicrobial activity against four Gram‐negative bacteria, four Gram‐positive bacteria, and one fungal pathogen.

[1] = tested on: Klebsiella pneumoniae CRKP HS11286; experiment: microbe, parasite or virus in culture; type: cell-based; settings: Figure S127a
Procedure, shortened: (§1)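 Growth inhibition read visually; MIC taken as lowest inhibitory concentration. LB medium; inocula from overnight cultures diluted 5000-fold, S. aureus 10000-fold. Peptide range 64 to 0.125 µg mL^−1 (2-fold, pre-mix), two independent determinations.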

[2] = tested on: Klebsiella pneumoniae CRKP 5452; experiment: microbe, parasite or virus in culture; type: cell-based; settings: Figure S127a, wild type
Procedure, shortened: as §1

[3] = tested on: Klebsiella pneumoniae NCTC 5056; experiment: microbe, parasite or virus in culture; type: cell-based; settings: Figure S127a, colistin-resistant strain
Procedure, shortened: as §1

K. pneumoniae CRKP5452 = experiment: Resistance acquisition by serial passaging; type: cell-based; settings: K. pneumoniae CRKP5452, sub-MIC levels, daily passage for 21 days, n = 2
Experimental: (§2) Overnight cultures S. aureus USA300 were diluted 10000‐fold in LB broth, and 100 µL of dilute cell suspension was added to 96‐well plates containing 100 µL serially diluted aquicidine C4, telomycin, and daptomycin (with 15 mM CaCl2). Overnight cultures K. pneumoniae CRKP5452 were diluted 5000‐fold in LB broth, and 100 µL of dilute cell suspension was added to 96‐well plates containing 100 µL serially diluted aquicidine L and colistin. After an incubation of 24 h at 37 °C, the MIC value was determined. […] The MIC value was recorded as described above, and the process was repeated daily for 21 days. Experiments were performed two independent times (n = 2).

[4] = tested on: K. pneumoniae CRKP 5452 PhoQL348Q; experiment: MIC against colistin-resistant mutant; type: cell-based; settings: Figure S127a, colistin-resistant mutant from serial passaging
Experimental: (§3) All MIC assays were performed two independent times (n = 2) in 96‐well plates using a broth micro‐dilution method. The lowest concentration of that inhibited visible microbial growth was recorded as the MIC value.
(§4) For most of bacterial strains, overnight cultures were diluted 5000‐fold in LB broth. For E. faecium and S. aureus, overnight cultures were diluted 1000‐ and 10000‐fold in LB broth, respectively. 100 µL of diluted cells was mixed with 100 µL of LB broth containing each peptide ranging from 64 to 0.125 µg mL^−1 at 2‐fold serial dilutions.
as §2
Single‐nucleotide polymorphisms (SNPs) for telomycin‐, daptomycin‐ or colistin‐resistant mutants were identified using SNIPPY by mapping DNBSEQ‐seq reads to the reference genome of S. aureus USA300 or K. pneumoniae CRKP5452.

K. pneumoniae 15580 = experiment: MIC against colistin-resistant strain; type: cell-based; settings: Figure S127a
Experimental: as §3, §4

For Brevicidine, the “MIC, anti-Gram negative activity” value (Gram negative bacteria) is given as 2 to 4 mg/L.

With Colistin [reference compound] the “antibacterial activity (MIC) K. pneumoniae CRKP HS11286” value [1] was 0.125 mg/L, the “antibacterial activity (MIC) K. pneumoniae CRKP 5452” value [2] was 0.125 mg/L and the “antibacterial activity (MIC) K. pneumoniae NCTC 5056” value [3] was 32 mg/L. For the same substance, the “increase of MIC during serial passaging” value (K. pneumoniae CRKP5452) was 13.3 fold, the “antibacterial activity (MIC) K. pneumoniae CRKP 5452 PhoQL348Q” value [4] was 4 mg/L and the “antibacterial activity (MIC) K. pneumoniae 15580” value (K. pneumoniae 15580) was > 64 mg/L.

For Laterocidine, the “MIC, anti-Gram negative activity” value (Gram negative bacteria) is given as 2 to 4 mg/L.

For pedopeptin B, the anti-Gram-negative activity (Gram negative bacteria; in words) is given as “potent anti‐Gram‐negative activity”.
